Assay results from patent US8653100B2 (AbbVie Inc., priority 2008, dated 2014).
Where a name gives a salt, the structure may show the parent alone.

How the values were obtained:
human GlyT1c = human GlyT1c (Homo sapiens (Human), UniProt P48067); experiment: [3H]-Glycine uptake into recombinant CHO cells expressing human GlyT1; assay type: cell-based; settings: hGlyT1c_5_CHO cells, 200 nM [3H]-glycine
Experimental: [^3H]-Glycine uptake into recombinant CHO cells expressing human GlyT1: Human GlyT1c expressing recombinant hGlyT1c—5_CHO cells were plated at 20,000 cells per well in 96 well Cytostar-T scintillation microplates (Amersham Biosciences) and cultured to sub-confluency for 24 h. […] The plates were placed in a Wallac Microbeta (PerkinElmer) and continuously counted by solid phase scintillation spectrometry during up to 3 hours. […] IC50 calculations were made by four-parametric logistic nonlinear regression analysis (GraphPad Prism) using determinations within the range of linear increase of [^3H]-glycine incorporation between 60 and 120 min.

human GlyT1c transporter = human GlyT1c transporter (Homo sapiens (Human), UniProt P48067); experiment: Radioligand binding assay using recombinant CHO cell membranes expressing human GlyT1; settings: examples 88-204, radioligand not specified by footnote, read-out: radioligand binding Kiapp
In short: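 Competition binding of [^3H]-(R)-NPTS (0.5 nM) to CHO membranes expressing human GlyT1c (50 μg/ml protein) in pH 7.5 Hepes/NaCl buffer with 1% DMSO, 1 h at room temperature. Non-specific binding defined with 10 μM Org24598; filtration and scintillation counting, one-site fit, Ki via Cheng-Prusoff.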

Chain of human GlyT1c (P48067 whole entry): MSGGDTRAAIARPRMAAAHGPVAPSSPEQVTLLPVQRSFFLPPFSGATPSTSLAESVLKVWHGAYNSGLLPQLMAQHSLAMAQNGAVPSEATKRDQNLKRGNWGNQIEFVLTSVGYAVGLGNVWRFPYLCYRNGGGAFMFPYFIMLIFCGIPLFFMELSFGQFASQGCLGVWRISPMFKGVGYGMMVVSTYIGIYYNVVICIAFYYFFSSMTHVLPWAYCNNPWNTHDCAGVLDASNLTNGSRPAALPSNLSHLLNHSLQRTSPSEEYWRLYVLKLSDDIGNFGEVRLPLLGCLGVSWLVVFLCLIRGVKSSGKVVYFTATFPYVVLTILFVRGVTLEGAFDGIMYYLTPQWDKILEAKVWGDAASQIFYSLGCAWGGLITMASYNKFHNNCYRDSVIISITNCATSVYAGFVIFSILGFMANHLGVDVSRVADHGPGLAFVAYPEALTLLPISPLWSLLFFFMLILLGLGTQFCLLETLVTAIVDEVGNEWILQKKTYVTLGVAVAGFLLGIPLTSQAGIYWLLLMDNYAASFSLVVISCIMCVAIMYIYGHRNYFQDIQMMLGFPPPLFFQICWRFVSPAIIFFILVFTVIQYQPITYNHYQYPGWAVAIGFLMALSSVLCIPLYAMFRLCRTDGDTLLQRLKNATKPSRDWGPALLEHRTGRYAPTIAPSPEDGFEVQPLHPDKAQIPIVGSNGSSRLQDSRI
Chain of human GlyT1c transporter (P48067 whole entry): as above

Row | Compound | IC50 (human GlyT1c) [µM] | Ki (human GlyT1c transporter) [µM]
1 | CC(C)NC(=O)NCCOc1ccc2c(c1)C(C1(c3ccc(Cl)cc3)CCC1)NCC2 (centres unmarked) [Example 36, 1-(2-{1-[1-(4-Chloro-phenyl)-cyclobutyl]-1,2,3,4-tetrahydro-isoquinolin-7-yloxy}-ethyl)-3-isopropyl-urea hydrochloride] | ≤ 100 | 
2 | Cn1cc(S(=O)(=O)NCCOc2ccc3c(c2)C(C2(c4ccc(Cl)cc4)CCC2)NCC3)cn1 (centres unmarked) [Example 37, 1-Methyl-1H-pyrazole-4-sulfonic acid (2-{1-[1-(4-chloro-phenyl)-cyclobutyl]-1,2,3,4-tetrahydro-isoquinolin-7-yloxy}-ethyl)-amide hydrochloride] | ≤ 0.1 | 
3 | CC(C)S(=O)(=O)NCCOc1ccc2c(c1)C(C1(c3ccc(Cl)cc3)CCC1)NCC2 (centres unmarked) [Example 38, Propane-2-sulfonic acid (2-{1-[1-(4-chloro-phenyl)-cyclobutyl]-1,2,3,4-tetrahydro-isoquinolin-7-yloxy}-ethyl)-amide hydrochloride] | ≤ 0.1 | 
4 | CCCCS(=O)(=O)NCCOc1ccc2c(c1)C(C1(c3ccc(Cl)cc3)CCC1)N(C(=O)NCC)CC2 (centres unmarked) [Example 39, 7-[2-(Butane-1-sulfonylamino)-ethoxy]-1-[1-(4-chloro-phenyl)-cyclobutyl]-3,4-dihydro-1H-isoquinoline-2-carboxylic acid ethylamide hydrochloride] | ≤ 100 | 
5 | CCCCS(=O)(=O)NCCOc1ccc2c(c1)C(C1(c3ccc(Cl)cc3)CCC1)N(C)CC2 (centres unmarked) [Example 40, Butane-1-sulfonic acid (2-{1-[1-(4-chloro-phenyl)-cyclobutyl]-2-methyl-1,2,3,4-tetrahydro-isoquinolin-7-yloxy}-ethyl)-amide] | ≤ 1 | 
6 | CCS(=O)(=O)N1CCN(c2ccc3c(c2)C(C2(c4ccc(Cl)cc4)CCC2)NCC3)CC1 (centres unmarked) [Example 41, 1-[1-(4-Chloro-phenyl)-cyclobutyl]-7-(4-ethanesulfonyl-piperazin-1-yl)-1,2,3,4-tetrahydro-isoquinoline] | ≤ 100 | 
7 | O=C(NCCOc1ccc2c(c1)C(C1(c3ccc(Cl)cc3)CCC1)NCC2)Nc1cccnc1 (centres unmarked) [Example 42, 1-(2-{1-[1-(4-Chloro-phenyl)-cyclobutyl]-1,2,3,4-tetrahydro-isoquinolin-7-yloxy}-ethyl)-3-pyridin-3-yl-urea hydrochloride] | ≤ 100 | 
8 | Cn1cc(S(=O)(=O)NCCOc2ccc3c(c2)C(C2(c4ccc(Cl)cc4)CC(F)(F)C2)NCC3)cn1 (centres unmarked) [Example 43, 1-Methyl-1H-pyrazole-4-sulfonic acid (2-{1-[1-(4-chloro-phenyl)-3,3-difluoro-cyclobutyl]-1,2,3,4-tetrahydro-isoquinolin-7-yloxy}-ethyl)-amidehydrochloride] | ≤ 0.1 | 
9 | CCCS(=O)(=O)NCCOc1ccc2c(c1)C(C1(c3ccccc3)CCC1)NCC2 (centres unmarked) [Example 50, 1-(1-Phenylcyclobutyl)-7-(2-(propylsulfonamido)ethoxy)-1,2,3,4-tetrahydroisoquinolinium chloride] | ≤ 0.1 | 
10 | Cn1cnc(S(=O)(=O)NCCOc2ccc3c(c2)C(C2(c4ccc(Cl)cc4)CCC2)NCC3)c1 (centres unmarked) [Example 51, 1-(1-(4-Chlorophenyl)cyclobutyl)-7-(2-(1-methyl-1H-imidazole-4-sulfonamido)ethoxy)-1,2,3,4-tetrahydroisoquinolinium chloride] | ≤ 0.1 | 
11 | Cc1nc(S(=O)(=O)NCCOc2ccc3c(c2)C(C2(c4ccc(Cl)cc4)CCC2)NCC3)cn1C (centres unmarked) [Example 52, 1-(1-(4-Chlorophenyl)cyclobutyl)-7-(2-(1,2-dimethyl-1H-imidazole-4-sulfonamido)ethoxy)-1,2,3,4-tetrahydroisoquinolinium chloride] | ≤ 10 | 
12 | O=S(=O)(NCCOc1ccc2c(c1)C(C1(c3ccc(Cl)cc3)CCC1)NCC2)N1CCNCC1 (centres unmarked) [Example 55, N-(2-(1-(1-(4-Chlorophenyl)cyclobutyl)-1,2,3,4-tetrahydroisoquinolin-7-yloxy)ethyl)piperazine-1-sulfonamide dihydrochloride] | ≤ 10 | 
13 | O=S(=O)(NCCOc1ccc2c(c1)C(C1(c3ccc(Cl)cc3)CCC1)NCC2)c1ccc(NCc2ccccc2)nc1 (centres unmarked) [Example 58, 6-(Benzylamino)-N-(2-(1-(1-(4-chlorophenyl)cyclobutyl)-1,2,3,4-tetrahydroisoquinolin-7-yloxy)ethyl)pyridine-3-sulfonamide hydrochloride] | ≤ 1 | 

The remaining lines, values ahead:

Row | IC50 (human GlyT1c) [µM] | Ki (human GlyT1c transporter) [µM] | Compound
14 | ≤ 10 |  | O=C(NCCOc1ccc2c(c1)C(C1(c3ccc(Cl)cc3)CCC1)NCC2)c1ccccc1 (centres unmarked) [Example 3, N-(2-{1-[1-(4-Chloro-phenyl)-cyclobutyl]-1,2,3,4-tetrahydro-isoquinolin-7-yloxy}-ethyl)-benzamide]
15 | ≤ 100 |  | CC(C)C(=O)NCCOc1ccc2c(c1)C(C1(c3ccc(Cl)cc3)CCC1)NCC2 (centres unmarked) [Example 5, N-(2-{1-[1-(4-Chloro-phenyl)-cyclobutyl]-1,2,3,4-tetrahydro-isoquinolin-7-yloxy}-ethyl)-isobutyramide]
16 | ≤ 10 |  | CC(=O)NCCOc1ccc2c(c1)C(C1(c3ccc(Cl)cc3)CCC1)NCC2 (centres unmarked) [Example 6, N-(2-{1-[1-(4-Chloro-phenyl)-cyclobutyl]-1,2,3,4-tetrahydro-isoquinolin-7-yloxy}-ethyl)-acetamide]
17 | ≤ 10 |  | CCCNC(=O)NCCOc1ccc2c(c1)C(C1(c3ccc(Cl)cc3)CCC1)NCC2 (centres unmarked) [Example 33, 1-(2-{1-[1-(4-Chloro-phenyl)-cyclobutyl]-1,2,3,4-tetrahydro-isoquinolin-7-yloxy}-ethyl)-3-propyl-urea hydrochloride]
18 | ≤ 10 |  | O=C(NCCOc1ccc2c(c1)C(C1(c3ccc(Cl)cc3)CCC1)NCC2)Nc1ccccc1 (centres unmarked) [Example 34, hydrochloride]
19 | ≤ 1 |  | Cc1nn(C)cc1S(=O)(=O)NCCOc1ccc2c(c1)C(C1(c3ccc(Cl)cc3)CCC1)NCC2 (centres unmarked) [Example 35, 1,3-Dimethyl-1H-pyrazole-4-sulfonic acid (2-{1-[1-(4-chloro-phenyl)-cyclobutyl]-1,2,3,4-tetrahydro-isoquinolin-7-yloxy}-ethyl)-amide hydrochloride]
20 | ≤ 0.1 |  | CCCS(=O)(=O)NCCOc1ccc2c(c1)C(C1(c3ccc(Cl)cc3)CC(F)(F)C1)NCC2 (centres unmarked) [Example 44, Propane-1-sulfonic acid (2-{1-[1-(4-chloro-phenyl)-3,3-difluoro-cyclobutyl]-1,2,3,4-tetrahydro-isoquinolin-7-yloxy}-ethyl)-amide hydrochloride]
21 | ≤ 1 |  | CCCS(=O)(=O)NCCN(CCOc1ccc2c(c1)C(C1(c3ccc(Cl)cc3)CCC1)NCC2)S(=O)(=O)CCC (centres unmarked) [Example 45, Propane-1-sulfonic acid (2-{1-[1-(4-chloro-phenyl)-cyclobutyl]-1,2,3,4-tetrahydro-isoquinolin-7-yloxy}-ethyl)-[2-(propane-1-sulfonylamino)-ethyl]amide]
22 | ≤ 1 |  | CCCS(=O)(=O)NCCOc1ccc2c(c1)C(C1(c3ccc(Cl)cc3)CCC1)N(C(=N)NC#N)CC2 (centres unmarked) [Example 46, 1-(1-(4-Chlorophenyl)cyclobutyl)-N-cyano-7-(2-(propylsulfonamido)ethoxy)-3,4-dihydroisoquinoline-2(1H)-carboximidamide]
23 | ≤ 10 |  | CCCS(=O)(=O)NCCOc1ccc2c(c1)C(C1(c3ccc(Cl)cc3)CCC1)N(C(=N)N)CC2 (centres unmarked) [Example 47, 1-[1-(4-Chloro-phenyl)-cyclobutyl]-7-[2-(propane-1-sulfonylamino)-ethoxy]-3,4-dihydro-1H-isoquinoline-2-carboxamidine]
24 | ≤ 10 |  | O=C(COc1ccc2c(c1)C(C1(c3ccc(Cl)cc3)CCC1)NCC2)N1CCNCC1 (centres unmarked) [Example 48, 2-{1-[1-(4-Chloro-phenyl)-cyclobutyl]-1,2,3,4-tetrahydro-isoquinolin-7-yloxy}-1-piperazin-1-yl-ethanone]
25 | ≤ 0.1 |  | CCCS(=O)(=O)NCCOc1ccc2c(c1)C(C1(c3cccc(Cl)c3)CCC1)NCC2 (centres unmarked) [Example 49, Propane-1-sulfonic acid (2-{1-[1-(3-chloro-phenyl)-cyclobutyl]-1,2,3,4-tetrahydroisoquinolin-7-yloxy}-ethyl)-amide]
26 | ≤ 10 |  | CCOC(=O)N1CCN(S(=O)(=O)NCCOc2ccc3c(c2)C(C2(c4ccc(Cl)cc4)CCC2)NCC3)CC1 (centres unmarked) [Example 54, Ethyl 4-(N-(2-(1-(1-(4-chlorophenyl)cyclobutyl)-1,2,3,4-tetrahydroisoquinolin-7-yloxy)ethyl)sulfamoyl)piperazine-1-carboxylate hydrochloride]
27 | ≤ 10 |  | CCCS(=O)(=O)N1CCN(S(=O)(=O)NCCOc2ccc3c(c2)C(C2(c4ccc(Cl)cc4)CCC2)NCC3)CC1 (centres unmarked) [Example 56, N-(2-(1-(1-(4-Chlorophenyl)cyclobutyl)-1,2,3,4-tetrahydroisoquinolin-7-yloxy)ethyl)-4-(propylsulfonyl)piperazine-1-sulfonamide hydrochloride]
28 | ≤ 0.1 |  | O=S(=O)(NCCOc1ccc2c(c1)C(C1(c3ccc(Cl)cc3)CCC1)NCC2)c1c[nH]cn1 (centres unmarked) [Example 57, N-(2-(1-(1-(4-Chlorophenyl)cyclobutyl)-1,2,3,4-tetrahydroisoquinolin-7-yloxy)ethyl)-1H-imidazole-4-sulfonamide hydrochloride]
29 |  | ≤ 100 | O=S(=O)(NCCOc1ccc2c(c1)C(C1(c3ccc(Cl)cc3)CCC1)NCC2)c1ncn[nH]1 (centres unmarked) [Example 204, N-[2-({1-[1-(4-Chlorophenyl)cyclobutyl]-1,2,3,4-tetrahydroisoquinolin-7-yl}oxy)ethyl]-1H-1,2,4-triazole-5-sulfonamide]
